According to patent US20100017895A1, “Small animal model for hcv replication” (priority 2005, published 2010):

Columns and labels:
[1] = system: HCV replicon in T7-11 cells; experiment: Subcutaneous T7-11 replicon cell model in gamma-irradiated SCID mice (bioluminescence, NS5B IFA, RT-PCR, cPARP, Ki67)
Procedure: Efficacy studies with T7-11 implanted mice were initiated when the bioluminescence signal was stable and approximately two logs above background. […] Control animals received human albumin.
BILN 2061 was administered at 30 mg/kg once daily starting day 21-post subcutaneous implantation of T7-11 cells.
Cell implantation. Female SCID mice were shaved at the site of cell implantation and gamma-irradiated with 3 Gy either one-day prior to or on the same day as cell implant. For subcutaneous implantation, five million cells in 0.2 ml of HBSS were implanted at the right flank.
Whole body in vivo imaging. Anesthetized mice were injected intraperitoneally with 150 mg/kg of luciferin (Xenogen Corporation, Alameda, Calif.). After 10-20 minutes, mice were imaged using a CCD camera in the Xenogen IVIS™ imaging system. The bioluminescence signal intensity was quantified using Living Image Software (Xenogen Corporation, Alameda, Calif.).
Statistical analysis. Differences in bioluminescence signal between control and treatment groups of mice were compared by the two-tailed Mann-Whitney test. Differences in signal among the control, treatment and rebound groups of mice and among combination groups were compared by the nonparametric Kruskal-Wallis test A P-value <0.05 was considered significant.

[2] = Pharmacokinetic (PK) data, subcutaneous route; type: in vivo
[3] = system: HCV replicon in T7-11 cells; experiment: Liver model with T7-11 replicon cells in gamma-irradiated SCID mice; type: in vivo; settings: 30 mg/kg SC once daily from day 25 post tumor cell implantation; within three days
Procedure: To evaluate the efficacy of IFN-α in liver, T7-11 cells were directly injected into one lobe of the liver in gamma irradiated SCID mice. […] To confirm that the luciferase signal was associated with the liver, the locations of tumors were determined by physical examination at the end of study
The antiviral effect of BILN 2061 on HCV replication was also examined. BILN 2061 was administered subcutaneously at 30 mg/kg once daily starting day 25-post tumor cell implantation.
Whole body in vivo imaging.

For BILN 2061, the “signal after treatment was terminated” value ([1]; 30 mg/kg SC QD three days, several days after termination) was “returned to the levels similar to the untreated control group”, the “adverse effect on the replicon-containing cells” value ([1]; 30 mg/kg SC once daily for three days) was “did not have any adverse effect on the replicon-containing cells” and the “decrease of bioluminescence signal compared to the control group” value ([1]; 30 mg/kg SC once daily from day 21, within three days) was “approximately two”. For the same substance, the “fold decrease of mean bioluminescence signal as compared to the control group” value ([1]; two days after treatment, SC daily from day 18, BILN 2061 30 mg/kg and/or IFN-α 15,000 IU) was 16 fold, the “duration of sustained plasma exposure” value [2] was “more than 24 hr” and the “fold decline in bioluminescence compared to the untreated control group” value [3] was 10 fold.
In the case of Interleukin 2 [IL-2], the “effect on bioluminescence signal” value ([1]; 1 mg/kg, over 5 days of treatment) is reported as “no effect”.
